Measurements from US11351170B2, “Substituted pyrimidines as CDK4/6 inhibitors” (priority 2017, dated 2022).
Where “and” joins values, the source holds several entries; their conditions need not be identical. Equal values may be shown once. Read-outs that look alike come from different tables or passages of the source.

How the values were obtained:
CDK5 = CDK5 (Homo sapiens (Human), UniProt Q00535); assay: CDK5 Inhibition Assay; assay type: biochemical
Description: (§1) CDK5 Inhibition Assay. […] The same volume of DMSO was adopted as high control. 20 nL of the test compound solution in DMSO were dispensed into a new 384-well assay plate by Echo 550. […] Kinase assay buffer supplemented with substrate peptides was employed as low control to monitor the background. 40 µM ATP was prepared in kinase assay buffer containing and 5 μL of ATP solution was added to each well to start the reaction. The assay plate was incubated at 25° C. for 90 minutes and the reaction was stopped by adding 40 μL of 0.5 M EDTA.

CDK2 = CDK2 (Homo sapiens (Human), UniProt P24941); assay: CDK2 Inhibition Assay; assay type: biochemical
Description: as §1, with “CDK2 Inhibition” for “CDK5 Inhibition”, “background. 400” for “background. 40”
Phosphorylated fluorescent-tagged peptides were differentiated from non-phosphorylated peptides by separating using Caliper EZ Reader II and the detection was directly converted to conversion ratio.

CDK6 = CDK6 (Homo sapiens (Human), UniProt Q00534); assay: CDK6 Inhibition Assay; assay type: biochemical
Description: (§2) CDK6 Inhibition Assay. […] The same volume of DMSO was adopted as high control (HC). 20 nL compound solution in DMSO (diluted) were dispensed into a new 384-well assay plate by Echo 550. […] Kinase assay buffer supplemented with substrate peptides was employed as low control (LC) to monitor the background. 400 µM ATP was prepared in kinase assay buffer containing and 15 μL of ATP solution was added to each well to start the reaction. The assay plate was incubated at 25° C. for 90 minutes and the reaction was stopped by adding 40 μL of 0.5 M EDTA.

CDK4 = CDK4 (Homo sapiens (Human), UniProt P11802); assay: CDK4 Inhibition Assay; assay type: biochemical
Description: as §2, with “CDK4” for “CDK6”, “nL of” for “nL”, “anew” for “a new”
Phosphorylated fluorescent-tagged peptides were differentiated from non-phosphorylated peptides by separating using Caliper EZ Reader II and the detection was directly converted to conversion ratio (ratio of phosphorylated to non-phosphorylated peptide).
For estimation of IC50, the % substrate conversion values are transformed to % relative activity by applying the following equation: […]

[1] = Mouse pharmacokinetics (p.o. and i.v.)
Description: Blood samples were taken at 0.083, 0.25, 0.5, 1.0, 3.0, 6.0 and 24 hours post i.v. dosing and at 0.25, 0.5, 1.0, 3.0, 6.0 and 24 hours post p.o. dosing. The plasma concentration of compounds were determined by HPLC.

[2] = Metabolic stability in dog liver microsomes; assay type: in vitro ADME; details: dog liver microsomes 0.5 mg/mL
Description: (§3) Metabolic stability of compounds is assessed at […] with human, rat, mouse, dog, and monkey liver microsomes (0.5 mg/mL). Compound and protein are equilibrated at 37° C. for 5 min prior to reaction initiation with co-factor NADPH. […] After quenching and centrifugation, supernatants were analyzed by LC-MS with methods specific to compounds tested.

[3] = Metabolic stability in rat liver microsomes; assay type: in vitro ADME; details: rat liver microsomes 0.5 mg/mL
Description: as §3

HS68 cells = HS68 cells treated for 24 hours
Description: HS68 cells (human skin fibroblast cell line, ATCC) were treated for 24 hours with compounds of the present invention at 0, 1, 3, 10, 30, 100, 300, or 1,000 nmol/L final concentration. Cells were harvested and fixed in ice-cold 70% ethanol (Sigma-Aldrich). Fixed cells were washed with PBS, stained with 40 μg/mL propidium iodide (Thermofisher Scientific), 10 g RNAseA (Sigma-Aldrich) in PBS-CMF (calcium magnesium free). Samples were processed using flow cytometer (Fisher), and cell-cycle analysis was completed using FlowJo software (Tree Star).

[4] = Metabolic stability in human liver microsomes; assay type: in vitro ADME; details: human liver microsomes 0.5 mg/mL
Description: as §3

[5] = Metabolic stability in mouse liver microsomes; assay type: in vitro ADME; details: mouse liver microsomes 0.5 mg/mL
Description: as §3

[6] = Metabolic stability in monkey liver microsomes; assay type: in vitro ADME; details: monkey liver microsomes 0.5 mg/mL
Description: as §3

HSPCs = details: CDK4/6 dependent subsets of healthy cells such as HSPCs; cited from earlier work

Chain of CDK4 (P11802 whole entry): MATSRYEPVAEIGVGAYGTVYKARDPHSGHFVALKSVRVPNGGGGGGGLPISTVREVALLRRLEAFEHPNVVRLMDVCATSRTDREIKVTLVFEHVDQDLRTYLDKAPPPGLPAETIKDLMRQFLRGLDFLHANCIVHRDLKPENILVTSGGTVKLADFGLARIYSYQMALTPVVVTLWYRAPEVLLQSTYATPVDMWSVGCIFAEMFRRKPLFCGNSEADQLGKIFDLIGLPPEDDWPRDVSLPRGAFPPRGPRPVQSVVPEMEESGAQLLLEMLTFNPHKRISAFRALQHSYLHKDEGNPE
Chain of CDK4 (P30281 whole entry partner): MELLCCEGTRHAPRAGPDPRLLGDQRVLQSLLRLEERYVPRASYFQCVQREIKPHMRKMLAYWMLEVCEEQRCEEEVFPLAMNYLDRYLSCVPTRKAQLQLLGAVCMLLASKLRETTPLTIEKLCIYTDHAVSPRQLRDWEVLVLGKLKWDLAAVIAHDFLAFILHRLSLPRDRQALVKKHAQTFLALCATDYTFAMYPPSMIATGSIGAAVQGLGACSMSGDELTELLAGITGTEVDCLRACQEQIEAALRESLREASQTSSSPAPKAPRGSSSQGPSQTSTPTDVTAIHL
Chain of CDK6 (Q00534 whole entry): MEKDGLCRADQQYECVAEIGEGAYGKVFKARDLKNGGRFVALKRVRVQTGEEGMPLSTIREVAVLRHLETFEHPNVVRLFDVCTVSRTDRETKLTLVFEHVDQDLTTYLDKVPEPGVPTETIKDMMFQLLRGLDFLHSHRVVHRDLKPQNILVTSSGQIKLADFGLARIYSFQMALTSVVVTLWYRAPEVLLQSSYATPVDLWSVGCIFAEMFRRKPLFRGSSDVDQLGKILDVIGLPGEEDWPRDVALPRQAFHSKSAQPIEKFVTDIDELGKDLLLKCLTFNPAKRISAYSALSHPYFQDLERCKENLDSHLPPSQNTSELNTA
Chain of CDK6 (P30281 whole entry partner): as the sequence (P30281 whole entry partner) above
Chain of CDK5 (Q00535 whole entry): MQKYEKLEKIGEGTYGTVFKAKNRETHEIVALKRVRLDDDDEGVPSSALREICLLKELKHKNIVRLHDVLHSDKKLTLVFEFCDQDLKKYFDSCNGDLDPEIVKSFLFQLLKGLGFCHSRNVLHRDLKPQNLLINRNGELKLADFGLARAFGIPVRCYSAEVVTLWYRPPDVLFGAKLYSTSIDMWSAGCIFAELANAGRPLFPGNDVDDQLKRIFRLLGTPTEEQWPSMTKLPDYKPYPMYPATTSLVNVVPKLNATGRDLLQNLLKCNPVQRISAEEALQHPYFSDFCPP
Chain of CDK5 (Q15078 99-307 partner): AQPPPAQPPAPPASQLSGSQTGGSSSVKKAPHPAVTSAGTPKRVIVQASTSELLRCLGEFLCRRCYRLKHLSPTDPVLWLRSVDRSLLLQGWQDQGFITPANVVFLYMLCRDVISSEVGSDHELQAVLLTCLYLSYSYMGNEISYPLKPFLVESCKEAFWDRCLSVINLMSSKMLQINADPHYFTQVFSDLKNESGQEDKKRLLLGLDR

| SMILES | IC50 (CDK5) | IC50 (CDK2; read-out: CDK2 IC50) | IC50 (CDK6) | IC50 (CDK4) | further results |
| --- | --- | --- | --- | --- | --- |
| CCN1CCC(c2ccc(Nc3ncc(F)c(-c4cc(F)c5nc6n(c5c4)C(C)(C)CC6)n3)nc2)CC1 [Example 3, N-(5-(1-ethylpiperidin-4-yl)pyridin-2-yl)-5-fluoro-4-(5-fluoro-1,1-dimethyl-2,3-dihydro-1H-benzo[d]pyrrolo[1,2-a]imidazol-7-yl)pyrimidin-2-amine, reference compound] | 38.3 nM | 114 nM and 91 nM | 1.93 nM | 0.08 nM | – |
| CC1(C)CCc2nc3c(F)cc(-c4nc(Nc5ccc6c(n5)CCN(C(=O)CO)C6)ncc4F)cc3n21 [Example 5, 1-(2-(5-fluoro-4-(5-fluoro-1,1-dimethyl-2,3-dihydro-1H-benzo[d]pyrrolo[1,2-a]imidazol-7-yl)pyrimidin-2-ylamino)-7,8-dihydro-1,6-naphthyridin-6 (5H)-yl)-2-hydroxyethanone, reference compound] | 36.8 nM | 17.6 nM | 1.87 nM | 0.12 nM | – |
| CN(C)[C@H]1CCN(C(=O)c2ccc(Nc3ncc(F)c(-c4cc(F)c5nc6n(c5c4)C(C)(C)CC6)n3)nc2)C1 [Example 6, (S)-(3-(dimethylamino)pyrrolidin-1-yl)(6-(5-fluoro-4-(5-fluoro-1,1-dimethyl-2,3-dihydro-1H-benzo[d]pyrrolo[1,2-a]imidazol-7-yl)pyrimidin-2-ylamino)pyridin-3-yl)methanone] | 19.1 nM | 20.4 nM | 1.19 nM | 0.2 nM | IC50 (CDK2): 5.62 nM |
| CN(C)[C@H]1CCN(c2ccc(Nc3ncc(F)c(-c4cc(F)c5nc6n(c5c4)C(C)(C)CC6)n3)nc2)C1 [Example 7, (S)—N-(5-(3-(dimethylamino)pyrrolidin-1-yl)pyridin-2-yl)-5-fluoro-4-(5-fluoro-1,1-dimethyl-2,3-dihydro-1H-benzo[d]pyrrolo[1,2-a]imidazol-7-yl)pyrimidin-2-amine] | 50.6 nM | 65.5 nM | 3.96 nM | 0.18 nM | IC50 (CDK2): 16.1 nM |
| CCN1CCC(COc2ccc(Nc3ncc(F)c(-c4cc(F)c5nc6n(c5c4)C(C)(C)CC6)n3)nc2)CC1 [Example 8, N-(5-((1-ethylpiperidin-4-yl)methoxy)pyridin-2-yl)-5-fluoro-4-(5-fluoro-1,1-dimethyl-2,3-dihydro-1H-benzo[d]pyrrolo[1,2-a]imidazol-7-yl)pyrimidin-2-amine] | 705 nM | 368 nM | – | – | F ([1]; 10 mg/kg p.o. vs 2 mg/kg i.v.): 45.6%; AUC(0-t) ([1]; plasma, iv, 2 mg/kg): 2110 ng·h/mL; Vd ([1]; plasma, iv, 2 mg/kg): 3.71 L/kg; clearance ([1]; plasma, iv, 2 mg/kg): 15.7 mL/min/kg; half-life ([1]; plasma, iv, 2 mg/kg): 3.36 h; AUC(0-t) ([1]; plasma, po, 10 mg/kg): 4820 ng·h/mL; Cmax ([1]; plasma, po, 10 mg/kg): 340 ng/mL; Tmax ([1]; plasma, po, 10 mg/kg): 6 h; IC50 (CDK2): 285 nM; half-life ([2]; NADPH, 37° C.): 0.402 h; CLint scaled ([2]; scaled): 143 mL/min/kg; half-life ([3]; NADPH, 37° C.): 1.29 h; CLint scaled ([3]; scaled): 32.2 mL/min/kg; G1 % (max) (HS68 cells): 79.35%; half-life ([4]; NADPH, 37° C.): 1.34 h; CLint scaled ([4]; scaled): 21.7 mL/min/kg; half-life ([5]; NADPH, 37° C.): 0.45 h; CLint scaled ([5]; scaled): 202 mL/min/kg; half-life ([6]; NADPH, 37° C.): 0.223 h; CLint scaled ([6]; scaled): 151 mL/min/kg |
| CCN1CCC(COc2ccc(Nc3cc(-c4cc(F)c5nc6n(c5c4)C(C)(C)CC6)c(F)cn3)nc2)CC1 [Example 9, N-(5-((1-ethylpiperidin-4-yl)methoxy)pyridin-2-yl)-5-fluoro-4-(5-fluoro-1,1-dimethyl-2,3-dihydro-1H-benzo[d]pyrrolo[1,2-a]imidazol-7-yl)pyridin-2-amine] | 11.3 nM | 24.7 nM | 2.9 nM | 0.1 nM | IC50 (CDK2): 14.7 nM |
| CN1CCC(Oc2ccc(Nc3ncc(F)c(-c4cc(F)c5nc6n(c5c4)C(C)(C)CC6)n3)nc2)CC1 [Example 10, 5-fluoro-4-(5-fluoro-1,1-dimethyl-2,3-dihydro-1H-benzo[d]pyrrolo[1,2-a]imidazol-7-yl)-N-(5-(1-methylpiperidin-4-yloxy)pyridin-2-yl)pyrimidin-2-amine] | 136 nM | 64.1 nM | 2.46 nM | 0.26 nM | – |
| CC1(C)CCc2nc3c(F)cc(-c4nc(Nc5ccc(OCC6CCN(CCCO)CC6)cn5)ncc4F)cc3n21 [Example 11, 3-(4-((6-(5-fluoro-4-(5-fluoro-1,1-dimethyl-2,3-dihydro-1H-benzo[d]pyrrolo[1,2-a]imidazol-7-yl)pyrimidin-2-ylamino)pyridin-3-yloxy)methyl)piperidin-1-yl)propan-1-ol] | 128 nM | 44.9 nM | 1.02 nM | 0.11 nM | – |
| CN1CCC(COc2ccc(Nc3ncc(F)c(-c4cc(F)c5nc6n(c5c4)C(C)(C)CC6)n3)nc2)CC1 [Example 12, 5-fluoro-4-(5-fluoro-1,1-dimethyl-2,3-dihydro-1H-benzo[d]pyrrolo[1,2-a]imidazol-7-yl)-N-(5-((1-methylpiperidin-4-yl)methoxy)pyridin-2-yl)pyrimidin-2-amine] | 159 nM | 55.2 nM | 1.89 nM | 0.11 nM | – |
| CN1CCC(OCc2ccc(Nc3ncc(F)c(-c4cc(F)c5nc6n(c5c4)C(C)(C)CC6)n3)nc2)CC1 [Example 13, 5-fluoro-4-(5-fluoro-1,1-dimethyl-2,3-dihydro-1H-benzo[d]pyrrolo[1,2-a]imidazol-7-yl)-N-(5-((1-methylpiperidin-4-yloxy)methyl)pyridin-2-yl)pyrimidin-2-amine] | 433 nM | 174 nM | 3.92 nM | 0.25 nM | – |
| CC1(C)CCc2nc3c(F)cc(-c4nc(Nc5ccc(OC6CCN(CCO)CC6)cn5)ncc4F)cc3n21 [Example 14, 2-(4-(6-(5-fluoro-4-(5-fluoro-1,1-dimethyl-2,3-dihydro-1H-benzo[d]pyrrolo[1,2-a]imidazol-7-yl)pyrimidin-2-ylamino)pyridin-3-yloxy)piperidin-1-yl)ethanol] | 213 nM | 70.3 nM | 2.72 nM | 0.25 nM | – |
| CCN1CCN(c2ccc(Nc3ncc(F)c(-c4cc(F)c5nc6n(c5c4)C(C)(C)CC6)n3)nc2)CC1 [Example 15, N-(5-(4-ethylpiperazin-1-yl)pyridin-2-yl)-5-fluoro-4-(5-fluoro-1,1-dimethyl-2,3-dihydro-1H-benzo[d]pyrrolo[1,2-a]imidazol-7-yl)pyrimidin-2-amine, reference compound] | 46.8 nM | 117 nM and 21.6 nM | 0.88 nM | 0.07 nM | – |
| CCN1CCN(Cc2ccc(Nc3ncc(F)c(-c4cc(F)c5nn6c(c5c4)CCC6)n3)nc2)CC1 [Example 16, N-(5-((4-ethylpiperazin-1-yl)methyl)pyridin-2-yl)-5-fluoro-4-(6-fluoro-2,3-dihydro-1H-pyrrolo[1,2-b]indazol-8-yl)pyrimidin-2-amine] | > 10000 nM | > 10000 nM | 93.7 nM | 9.46 nM | – |
| CN1CCN(c2ccc(Nc3ncc4cc5n(c4n3)C3(CCCCC3)CNC5=O)nc2)CC1 [Example G1T28] | – | – | – | – | cell cycle arrest (HSPCs): transient cell cycle arrest |
| CC(=O)c1c(C)c2cnc(Nc3ccc(N4CCNCC4)cn3)nc2n(C2CCCC2)c1=O [PD-0332991] | – | – | – | – | cell cycle arrest (HSPCs): transient cell cycle arrest |
